Test results reported in US7301024B2, “Crystalline forms of gatifloxacin and processes for preparation” (Teva Pharmaceutical Industries Ltd., priority 2002, dated 2007).

Legend:
[1] = solid-state form after storage at 40° C. and 75% relative humidity, analyzed by XRD; assay type: physicochemical; conditions: 3 months
Description: As used in connection with the present invention, x-ray diffraction refers to x-ray diffraction by the powder diffraction technique (PXRD). X-ray powder diffraction analysis was performed using a Scintag powder diffractometer with variable goniometer, a Cu source, and a solid state detector. A standard round aluminum sample holder with zero background quartz plate was used. Samples were scanned from 2° to 40° 2θ at 3° per minute. Reflections are reported as peak maxima in the Intensity vs. 2θ plots, and are subject to the normal experimental error (uncertainty). Wet samples were promptly analyzed “as is,” i.e., without drying or grinding prior to the analysis.
Gatifloxacin form CH2 can also be made by heating form Ω to between about 25° C. and about 50° C. at a relative humidity of about 60% to about 80%, preferably for at least about one month. Gatifloxacin so formed is a mixture of form Ω and form CH2.
4. Gatifloxacin form Ω (3 g) was heated to 40° C. at 75% of relative humidity for 3 months.

[2] = sesquihydrate compared with hemihydrate; cited from earlier work
[3] = room temperature; compared with the other crystalline forms of U.S. Pat. No. 6,413,969; cited from earlier work
[4] = compared with the other crystalline forms of U.S. Pat. No. 6,413,969; cited from earlier work
[5] = compared with hemihydrate; cited from earlier work

In the case of `COc1c(N2CCNC(C)C2)c(F)cc2c(=O)c(C(=O)O)cn(C3CC3)c12` (racemic) [form Ω, (±)-1-cyclopropyl-6-fluoro-1,4-dihydro-8-methoxy-7-(3-methyl-1-piperazinyl)-4-oxo-3-quinolinecarboxylic acid], the “crystalline form found by XRD after storage” value [1] is reported as “mixture of gatifloxacin form Ω and form CH2”.

In the case of `COc1c(N2CCNC(C)C2)c(F)cc2c(=O)c(C(=O)O)cn(C3CC3)c12` (racemic) [hemihydrate, (±)-1-cyclopropyl-6-fluoro-1,4-dihydro-8-methoxy-7-(3-methyl-1-piperazinyl)-4-oxo-3-quinolinecarboxylic acid], the hygroscopicity [2] is given as “hygroscopic”.

For `COc1c(N2CCNC(C)C2)c(F)cc2c(=O)c(C(=O)O)cn(C3CC3)c12` (racemic) [pentahydrate, (±)-1-cyclopropyl-6-fluoro-1,4-dihydro-8-methoxy-7-(3-methyl-1-piperazinyl)-4-oxo-3-quinolinecarboxylic acid], the aqueous solubility [3] is given as “lowest” and the thermodynamic stability [4] is given as “most thermodynamically stable form”.

In the case of `COc1c(N2CCNC(C)C2)c(F)cc2c(=O)c(C(=O)O)cn(C3CC3)c12` (racemic) [sesquihydrate, (±)-1-cyclopropyl-6-fluoro-1,4-dihydro-8-methoxy-7-(3-methyl-1-piperazinyl)-4-oxo-3-quinolinecarboxylic acid], the stability in manufacturing [5] is listed as “more stable in manufacturing” and the hygroscopicity [2] is listed as “less hygroscopic”.
